Measurements as given in US9668951B2, “Pharmaceutical compositions comprising renewably-based biodegradable 1,3-propanediol” (DuPont Tate & Lyle Bio Products Company, LLC, priority 2006, dated 2017).

Assays:
human skin [1] = assay: second human skin patch test; assay type: in vivo
Text: (§1) Based on these studies PDO is not expected to be a skin irritant or sensitizer in humans.

human skin [2] = assay: human skin patch test, 5, 25 and 50% (induction and challenge phases); assay type: in vivo; details: diluted with D.I. water to 5%, 105 panelists completed
Text: as §1
The purpose of this study was to determine the potential of biologically-derived 1,3-propanediol, diluted to concentrations of 5%, 25%, and 50%, to cause irritation or delayed contact hypersensitivity in humans. The method employed in carrying out this test, described below, was similar to that described in “Appraisal of the Safety of Chemicals in Foods, Drugs and Cosmetics” by J. H. Drake and published by the Association of Food and Drug Officials of the United States, incorporated herein by reference.
Test Panel: The test involved the application of the test article to the upper arms of a group of 112 volunteer panelists. The panelists ranged from 16 to 71 years of age. One hundred and five panelists completed the study. Prior to the initiation of the study, all panelists were in good general health and free of any visible skin disease or anomaly in the area to be patched. Each panelist was required to read, understand and sign an informed consent statement. […]

Row | SMILES | patch test irritation of human skin (human skin [1]; 25, 50, and 75% (pH 7)) | skin irritant, fatiguing agent, or sensitizing agent (human skin [2]) | dermal irritation or sensitization reactions (human skin [1]; 25, 50, and 75% PDO at pH 7, or 75% PDO at pH 4 and 9)
1 | CC(O)CO (stereo not drawn) [propylene glycol, reference compound] | patch test irritants and cumulative irritants |  | 
2 | OCCCO [PDO, 1,3-propanediol] |  | not to be a skin irritant, fatiguing agent, or sensitizing agent | did not produce any clinically significant dermal irritation or sensitization reactions
